Laboratory results: BindingDB's records for doi:10.1021/jm0702579 (National Cancer Institute-Frederick, 2007)

Assay: Ratio of Ki for mouse wild type C1b domain of PKCdelta to Ki for mouse PKCdelta C1b Q27E mutant

Question: Which Ki does the source give for `CCCC(=O)O[C@@H]1[C@@H](C)[C@@]2(O)[C@@H](C=C(CO)C[C@]3(O)C(=O)C(C)=C[C@@H]23)[C@@H]2C(C)(C)[C@]12OC(=O)CCC` [(1aR,1bS,4aR,7aS,7bS,8R,9R,9aS)-4a,7b-dihydroxy-3-(hydroxymethyl)-1,1,6,8-tetramethyl-5-oxo-1,1a,1b,4,4a,5,7a,7b,8,9-decahydro-9aH-cyclopropa[3,4]benzo[1,2-e]azulene-9,9a-diyl dibutanoate] here?
Answer: 19 nM
